According to patent US20060258598A1, “Alpha-keto carbonyl calpain inhibitors” (priority 2003, published 2006):

What was measured:
[1] = system: Primary fibroblasts from donors with Friedreich Ataxia (FRDA); assay: BSO assay (cell viability under BSO-induced oxidative stress); format: cell-based, human; details: 24 h preincubation, 1 mM BSO; for EC50: Homo sapiens, Fibroblast
Description: Primary fibroblasts were derived from donors with molecular diagnosis for Friedreich Ataxia (FRDA) and control donors with no mitochondrial disease. Cell lines were obtained from Coriell Cell Repositories (Camden, N.J.; catalog numbers GM04078, GM08402 and GM08399 respectively). All cell types were diagnosed on the molecular level for intronic […] triplet repeat length of at least 400-450 repeats using a PCR-based method. Experiments were carried out as described in the literature (M. L. Jauslin et al., Human Mol. Genet., 2002, 11, 3055-3063): Cells were seeded in microtiter plates at a density of 4'000 cells per 100 μl in growth medium consisting of 25% (v/v) M199 EBS and 64% (v/v) MEM EBS without phenol red (Bioconcept, Allschwil, Switzerland) supplemented with 10% (v/v) fetal calf serum (PAA Laboratories, Linz, Austria), 100 U/ml penicillin, 100 μg/ml streptomycin (PAA Laboratories, Linz, Austria), 10 μg/ml insulin (Sigma, Buchs, Switzerland), 10 ng/ml EGF (Sigma, Buchs, Switzerland), 10 ng/ml bFGF (PreproTech, Rocky Hill, N.J.) and 2 mM glutamine (Sigma, Buchs, Switzerland). The cells were incubated in the presence of various test compounds for 24 h before addition of L-buthionine-(S,R)-sulfoximine (BSO) to a final concentration of 1 mM. Cell viability was measured after the first signs of toxicity appeared in the BSO-treated controls (typically after 16 to 48 h). The cells were stained for 60 min at room temperature in PBS with 1.2 μM calcein AM and 4 μM ethidium homodimer (Live/Dead assay, Molecular Probes, Eugene, Oreg.). Fluorescence intensity was measured with a Gemini Spectramax XS spectrofluorimeter (Molecular Devices, Sunnyvale, Calif.) using excitation and emission wavelengths of 485 nm and 525 nm respectively.

[2] = system: cellular calpains in C2C12 myoblasts; assay: Calpain inhibition assay in C2C12 myoblasts; format: cell-based; details: 2 h incubation, calcium ionophore Br-A-23187, read-out: Calp I IC50 Myoblast
Description: Calpain Inhibition Assay in C2C12 Myoblasts
This assay is aimed at monitoring the ability of the substance to inhibit cellular calpains. C2C12 myoblasts are grown in 96-well plates in growth medium (DMEM, 20% foetal calf serum) until they reach confluency. The growth medium is then replaced by fusion medium (DMEM, 5% horse serum). 24 hours later the fusion medium is replaced by fusion medium containing the test substances dissolved in 1 μl DMSO. After 2 hours of incubation at 37° C. the cells are loaded with the calpain fluorogenic substrate Suc-Leu-Tyr-AMC at 400 μM in 50 μl of a reaction buffer containing 135 mM NaCl; 5 mM KCl; 4 mM CaCl2; 1 mM MgCl2; 10 mM Glucose; 10 mM HEPES pH 7.25 for 20 min at room temperature. The calcium influx, necessary to activate the cellular calpains, is evoked by the addition of 50 μl reaction buffer containing 20 μM of the calcium ionophore Br-A-23187 (Molecular Probes). The fluorescence of the cleavage product AMC is measured as described above during 60 min at 37° C. at intervals of 1 min. The IC50 values are determined as described above. Comparison of the IC50 determined in the enzymatic calpain inhibition assay to the IC50 determined in the C2C12 myoblasts calpain inhibiton assay, allows to evaluate the cellular uptake or the membrane permeability of the substance.

human μ-calpain = biological target: T1, human μ-calpain (Homo sapiens, UniProt P07384); assay: Enzymatic calpain inhibition assay; format: biochemical; details: substrate Suc-Leu-Tyr-AMC, read-out: Calp I IC50
T1 construct: purchased Calbiochem
T1 sequence (P07384 1-714): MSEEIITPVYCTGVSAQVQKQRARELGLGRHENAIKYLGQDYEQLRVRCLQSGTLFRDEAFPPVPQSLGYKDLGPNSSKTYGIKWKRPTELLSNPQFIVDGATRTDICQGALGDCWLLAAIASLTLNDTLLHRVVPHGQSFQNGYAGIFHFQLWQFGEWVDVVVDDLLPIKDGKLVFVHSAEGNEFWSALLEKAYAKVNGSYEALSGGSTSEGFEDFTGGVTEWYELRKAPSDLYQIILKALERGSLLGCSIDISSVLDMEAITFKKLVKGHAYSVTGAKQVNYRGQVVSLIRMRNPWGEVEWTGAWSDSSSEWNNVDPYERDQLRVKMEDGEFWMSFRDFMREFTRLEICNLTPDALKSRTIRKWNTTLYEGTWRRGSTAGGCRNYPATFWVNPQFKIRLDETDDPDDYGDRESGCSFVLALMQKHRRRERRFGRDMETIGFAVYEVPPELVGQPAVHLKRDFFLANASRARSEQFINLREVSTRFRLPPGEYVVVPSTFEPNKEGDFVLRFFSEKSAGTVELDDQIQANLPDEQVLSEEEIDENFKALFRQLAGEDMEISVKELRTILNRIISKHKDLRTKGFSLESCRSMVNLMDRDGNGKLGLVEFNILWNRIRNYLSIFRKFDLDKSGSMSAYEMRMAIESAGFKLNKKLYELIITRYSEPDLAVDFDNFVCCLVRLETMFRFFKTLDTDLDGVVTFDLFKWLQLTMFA
T1 sequence (P04632 1-268 partner): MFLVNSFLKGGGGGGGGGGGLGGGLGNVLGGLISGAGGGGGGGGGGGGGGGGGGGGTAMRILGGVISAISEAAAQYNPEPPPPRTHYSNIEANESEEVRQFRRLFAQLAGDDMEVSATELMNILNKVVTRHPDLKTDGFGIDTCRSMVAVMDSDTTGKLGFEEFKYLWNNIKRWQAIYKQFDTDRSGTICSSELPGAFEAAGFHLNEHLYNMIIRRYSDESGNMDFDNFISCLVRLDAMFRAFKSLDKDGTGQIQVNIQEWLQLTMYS
Description: The Ki value was also determined in some cases. These criteria were used to measure the inhibitory effect of the compounds (I) on calpain I, calpain II and cathepsin B.
Enzymatic Calpain Inhibition Assay
The inhibitory properties of calpain inhibitors are tested in 100 μl of a buffer containing 100 mM imidazole pH 7.5, 5 mM L-Cystein-HCl, 5 mM CaCl2, 250 μM of the calpain fluorogenic substrate Suc-Leu-Tyr-AMC (Sigma) (Sasaki et al., J. Biol. Chem., 1984, 259, 12489-12949) dissolved in 2.5 μl DMSO and 0.5 μg of human μ-calpain (Calbiochem). The inhibitors dissolved in 1 μl DMSO are added to the reaction buffer. The fluorescence of the cleavage product 7-amino-4-methylcoumarin (AMC) is followed in a SPECTRAmax GEMINI XS (Molecular Device) fluorimeter at λex=360 nm and λem=440 nm at 30° C. during 30 min at intervals of 30 sec in 96-well plates (Greiner). The initial reaction velocity at different inhibitor concentrations is plotted against the inhibitor concentration and the IC50 values determined graphically.

| SMILES | IC50 [2] [nM] | IC50 (human μ-calpain) [nM] | EC50 [1] [nM] | BSO EC50 [1] |
| --- | --- | --- | --- | --- |
| CCNC(=O)C(=O)[C@H](Cc1ccccc1)NC(=O)[C@H](CC(C)C)NC(=O)CNC(=O)CCCCC1CCS[S+]1[O-] (stereo partly shown) [Example 211] | 15000 | 25 | 4000 |  |
| CCNC(=O)C(=O)[C@H](Cc1ccc(Cl)cc1)NC(=O)[C@@H](NC(=O)CNC(=O)CCCCC1SC[C@@H]2NC(=O)N[C@H]12)C(C)C (stereo partly shown) [Example 212] | 3500 | 150 |  |  |
| CCNC(=O)C(=O)[C@H](Cc1ccc(Cl)cc1)NC(=O)[C@@H](NC(=O)CCCC1CCCS1)C(C)C (stereo partly shown) [Example 5] | 2000 | 120 | 2000 |  |
| CCNC(=O)C(=O)[C@H](Cc1ccccc1)NC(=O)[C@H](CC(C)(C)C)NC(=O)CCCCC1CCS[S+]1[O-] (stereo partly shown) [Example 144] | 5000 | 80 | 7000 |  |
| CCNC(=O)C(=O)[C@H](Cc1ccc(Cl)cc1)NC(=O)[C@H](CC(C)(C)C)NC(=O)CCCCC1CCS[S+]1[O-] (stereo partly shown) [Example 28] | 4000 | 180 |  | inactive |
| Cc1ccc(S(=O)(=O)CNC(=O)C(=O)[C@H](Cc2ccc(Cl)cc2)NC(=O)[C@H](CC(C)C)NC(=O)CCCCC2CCSS2)cc1 (stereo partly shown) [Example 25] | 1500 | 120 | 2000 |  |
| CC(C)[C@H](NC(=O)CNC(=O)CCCCC1CCSS1)C(=O)N[C@@H](Cc1ccccc1)C(=O)C(=O)NCc1ccccc1 (stereo partly shown) [Example 209] | 2500 | 60 | > 100000 |  |
| CCNC(=O)C(=O)[C@H](Cc1ccc(F)c(F)c1)NC(=O)[C@@H](NC(=O)CCCCC1CCSS1)C(C)C (stereo partly shown) [Example 41] | 700 | 100 |  |  |
| COc1ccc(C[C@H](NC(=O)[C@@H](NC(=O)CCCCC2CCS[S+]2[O-])C(C)C)C(=O)C(=O)O)cc1 (stereo partly shown) [Example 89] | 4000 | 60 |  |  |
| CCNC(=O)C(=O)[C@H](Cc1ccc(Cl)cc1)NC(=O)[C@@H](NC(=O)CCC1CCCS1)C(C)C (stereo partly shown) [Example 6] | 3200 | 110 |  |  |
| Cc1ccc(S(=O)(=O)CNC(=O)C(=O)[C@H](Cc2ccc(Cl)cc2)NC(=O)[C@@H](NC(=O)CCCCC2CCS[S+]2[O-])C(C)C)cc1 (stereo partly shown) [Example 14] | 1200 | 200 |  |  |
| CCNC(=O)C(=O)[C@H](Cc1ccc(Cl)cc1)NC(=O)[C@@H](NC(=O)CNC(=O)CCCCC1CCS[S+]1[O-])C(C)C (stereo partly shown) [Example 170] | 4000 | 150 |  |  |
| CCNC(=O)C(=O)[C@H](Cc1ccc(Cl)cc1Cl)NC(=O)[C@@H](NC(=O)CCCCC1CCS[S+]1[O-])C(C)C (stereo partly shown) [Example 34] | 20000 | 500 |  |  |
| CCNC(=O)C(=O)[C@H](CC1CCCCC1)NC(=O)[C@@H](NC(=O)CCCCC1CCSS1)C(C)C (stereo partly shown) [Example 149] | 3000 | 250 |  |  |
| CCNC(=O)C(=O)[C@H](Cc1ccc(Cl)c(Cl)c1)NC(=O)[C@@H](NC(=O)CCCCC1CCSS1)C(C)C (stereo partly shown) [Example 29] | 10000 | 85 |  |  |
| CCNC(=O)C(=O)[C@H](CC(C)C)NC(=O)[C@@H](NC(=O)CCCCC1CCSS1)C(C)C (stereo partly shown) [Example 157] | 250 | 500 |  |  |
| CCNC(=O)C(=O)[C@@H](NC(=O)[C@@H](NC(=O)CCCCC1CCS[S+]1[O-])C(C)C)c1ccccc1 (stereo partly shown) [Example 154] |  | 750 |  |  |

Further lines, with some results ahead:

| IC50 [2] [nM] | IC50 (human μ-calpain) [nM] | SMILES | EC50 [1] [nM] | BSO EC50 [1] |
| --- | --- | --- | --- | --- |
| 1200 | 25 | CCNC(=O)C(=O)[C@H](Cc1ccc(C)cc1)NC(=O)[C@H](CC(C)C)NC(=O)CCCCC1CCS[S+]1[O-] (stereo partly shown) [Example 111] | 3000 |  |
| 1000 | 25 | CCNC(=O)C(=O)[C@H](Cc1ccc(Cl)cc1)NC(=O)[C@@H](NC(=O)CNC(=O)CCCCC1CCSS1)C(C)C (stereo partly shown) [Example 169] |  |  |
| 2500 | 150 | CCNC(=O)C(=O)[C@H](Cc1ccc(O)cc1)NC(=O)[C@@H](NC(=O)CCCCC1CCSS1)C(C)C (stereo partly shown) [Example 80] | 6000 |  |
| 15000 | 35 | CCNC(=O)C(=O)[C@H](Cc1ccc(F)cc1)NC(=O)[C@H](CC(C)C)NC(=O)CCCCC1CCS[S+]1[O-] (stereo partly shown) [Example 40] | 3000 |  |
| 3000 | 50 | CCNC(=O)C(=O)[C@H](Cc1ccc(Cl)cc1Cl)NC(=O)[C@H](CC(C)C)NC(=O)CCCCC1CCSS1 (stereo partly shown) [Example 35] |  | inactive |
| 1500 | 40 | CCNC(=O)C(=O)[C@H](Cc1ccc(Br)cc1)NC(=O)[C@H](CC(C)C)NC(=O)CNC(=O)CCCCC1CCSS1 (stereo partly shown) [Example 186] | 5000 |  |
| 2500 | 35 | CCNC(=O)C(=O)[C@H](Cc1ccc(OC)cc1)NC(=O)[C@H](CC(C)C)NC(=O)CCCCC1CCS[S+]1[O-] (stereo partly shown) [Example 95] | 10000 |  |
| 800 | 40 | CCNC(=O)C(=O)[C@H](Cc1ccc(C(F)(F)F)cc1)NC(=O)[C@H](CC(C)C)NC(=O)CCCCC1CCS[S+]1[O-] (stereo partly shown) [Example 125] |  |  |
| 1800 | 400 | CCNC(=O)C(=O)[C@H](Cc1ccc(C(C)(C)C)cc1)NC(=O)[C@@H](NC(=O)CCCCC1CCSS1)C(C)C (stereo partly shown) [Example 118] |  |  |
| 850 | 95 | CCNC(=O)C(=O)[C@H](Cc1ccc(C(C)(C)C)cc1)NC(=O)[C@H](CC(C)C)NC(=O)CCCCC1CCSS1 (stereo partly shown) [Example 120] |  |  |
| 500 | 15 | CCNC(=O)C(=O)[C@H](Cc1ccc(I)cc1)NC(=O)[C@H](CC(C)C)NC(=O)CCCCC1CCS[S+]1[O-] (stereo partly shown) [Example 79] |  |  |
